Reference: patent US20230114728A1 (Venatorx Pharmaceuticals, Inc., priority 2019, published 2023)
≈ marks a conversion by molar mass, not a printed value.

Assays:
Format in all cases: cell-based
[1] = system: E. coli AG100A; assay: Broth microdilution MIC in CAMHB; details: Escherichia coli, read-out: Minimum Inhibitory Concentration, E. coli AG100A
Summary of the method: (§1)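 Lowest compound concentration with no visible growth after 16-20 h at 37 °C defines MIC. Plates of 2-fold serial dilutions in cation-adjusted Mueller Hinton broth received 2-8×10^5 CFU/mL of exponentially grown cells, per CLSI methods; panel spans reference, hyper-permeable and efflux-pump-deleted strains.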

[2] = system: E. coli ATCC 25922; assay: Broth microdilution MIC in CAMHB; details: Escherichia coli, ATCC25922; E. coli ATCC 25922; MHB; read-out: Minimum Inhibitory Concentration, E. coli 25922
Summary of the method: as §1

[3] = system: E. coli D22; assay: Broth microdilution MIC in CAMHB; details: Escherichia coli; E. coli D22 (hyper-permeable); MHB; read-out: Minimum Inhibitory Concentration, E. coli D22
Summary of the method: as §1

[4] = system: P. aeruginosa (ΔmexAB-oprM); assay: Broth microdilution MIC in CAMHB; details: Pseudomonas aeruginosa, read-out: Minimum Inhibitory Concentration, P. aeruginosa ΔmexAB-OprM
Summary of the method: as §1

[5] = system: N. gonorrhoeae ATCC 49226; assay: Liquid broth MIC in Fastidious broth; details: Neisseria gonorrhoeae, ATCC49226; N. gonorrhoeae strain ATCC 49226; Fastidious broth; read-out: Minimum Inhibitory Concentration, N. gonorrhoeae ATCC 49226
Summary of the method: (§2)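 Colonies were swabbed from chocolate agar after 24 h growth and standardised by optical density at 600 nm. Compounds were serially diluted twofold in Fastidious broth, and bacteria added to give 5×10^5 CFU/mL. After about 24 h at 36 °C in 5% CO2, the lowest concentration allowing under 10% growth was taken as MIC.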

[6] = system: N. gonorrhoeae FA1090; assay: Liquid broth MIC in Fastidious broth; details: Neisseria gonorrhoeae; N. gonorrhoeae strain FA1090; Fastidious broth; read-out: Minimum Inhibitory Concentration, N. gonorrhoeae FA1090
Summary of the method: as §2

[7] = system: N. gonorrhoeae H041; assay: Liquid broth MIC in Fastidious broth; details: Neisseria gonorrhoeae, H041, read-out: Minimum Inhibitory Concentration, N. gonorrhoeae H041
Summary of the method: (§3)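 Broth microdilution against gonococcal strains expressing mosaic PBP2, starting inoculum 5×10^5 CFU/mL in Fastidious broth. Incubation runs ~24 h at 36 °C under 5% CO2, with MIC scored visually at <10% of full growth.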

[8] = system: N. gonorrhoeae WHO G; assay: Liquid broth MIC in Fastidious broth; details: Neisseria gonorrhoeae; N. gonorrhoeae strain WHO G; Fastidious broth; read-out: Minimum Inhibitory Concentration, N. gonorrhoeae WHO G
Summary of the method: as §2

[9] = system: N. gonorrhoeae WHO K; assay: Liquid broth MIC in Fastidious broth; details: Neisseria gonorrhoeae, read-out: Minimum Inhibitory Concentration, N. gonorrhoeae WHO K
Summary of the method: as §3

[10] = system: N. gonorrhoeae WHO L; assay: Liquid broth MIC in Fastidious broth; details: Neisseria gonorrhoeae; N. gonorrhoeae strain WHO L; Fastidious broth; read-out: Minimum Inhibitory Concentration, N. gonorrhoeae WHO L
Summary of the method: as §2

Structure (SMILES) | MIC [1] [µg/mL] | MIC [2] [µg/mL] | MIC [3] [µg/mL] | MIC [4] [µg/mL] | MIC [5] [µg/mL] | MIC [6] [µg/mL] | MIC [7] [µg/mL] | MIC [8] [µg/mL] | MIC [9] [µg/mL] | MIC [10] [µg/mL]
NCCN1CCN(C(=O)NC(C(=O)N[C@H]2Cc3cccc(C(=O)O)c3OB2O)c2cc(F)c(O)cc2F)C(=O)C1=O (stereo partly drawn) [Example 93, (3R)-3-(2-(4-(2-aminoethyl)-2,3-dioxopiperazine-1-carboxamido)-2-(2,5-difluoro-4-hydroxyphenyl)acetamido)-2-hydroxy-3,4-dihydro-2H-benzo[e][1,2]oxaborinine-8-carboxylic acid] | 2 to 4 (≈ 3.48 to 6.95 µM) | 8 to 16 (≈ 13.9 to 27.8 µM) | 2 to 4 (≈ 3.48 to 6.95 µM) | 32 to 64 (≈ 55.6 to 111 µM) | > 64 | 1 to 2 (≈ 1.74 to 3.48 µM) | > 64 | 4 to 8 (≈ 6.95 to 13.9 µM) | > 64 | > 64
CCN1CCN(C(=O)NC(C(=O)N[C@H]2Cc3cccc(C(=O)O)c3OB2O)c2ccc(O)c(NS(N)(=O)=O)c2)C(=O)C1=O (stereo partly drawn) [Example 30, (3R)-3-(2-(4-ethyl-2,3-dioxopiperazine-1-carboxamido)-2-(4-hydroxy-3-(sulfamoylamino)phenyl)acetamido)-2-hydroxy-3,4-dihydro-2H-benzo[e][1,2]oxaborinine-8-carboxylic acid] | 2 to 4 (≈ 3.23 to 6.47 µM) | 8 to 16 (≈ 12.9 to 25.9 µM) | 2 to 4 (≈ 3.23 to 6.47 µM) | 8 to 16 (≈ 12.9 to 25.9 µM) | > 64 | 1 to 2 (≈ 1.62 to 3.23 µM) | > 64 | 16 to 32 (≈ 25.9 to 51.7 µM) | > 64 | > 64
NCCN1CCN(C(=O)N[C@H](C(=O)N[C@H]2Cc3cccc(C(=O)O)c3OB2O)c2ccc(O)cc2F)C(=O)C1=O (single isomer, unassigned) [Example 88] | 32 to 64 (≈ 57.4 to 115 µM) | > 128 | 32 to 64 (≈ 57.4 to 115 µM) | > 128 | > 64 | 4 to 8 (≈ 7.18 to 14.4 µM) | > 64 | 16 to 32 (≈ 28.7 to 57.4 µM) | > 64 | > 64
NCCN1CCN(C(=O)NC(C(=O)N[C@H]2Cc3cccc(C(=O)O)c3OB2O)c2cc(Cl)c(O)cc2F)C(=O)C1=O (stereo partly drawn) [Example 87, (3R)-3-(2-(4-(2-aminoethyl)-2,3-dioxopiperazine-1-carboxamido)-2-(5-chloro-2-fluoro-4-hydroxyphenyl)acetamido)-2-hydroxy-3,4-dihydro-2H-benzo[e][1,2]oxaborinine-8-carboxylic acid] | 0.5 to 1 (≈ 0.845 to 1.69 µM) | 8 to 16 (≈ 13.5 to 27 µM) | 2 to 4 (≈ 3.38 to 6.76 µM) | 8 to 16 (≈ 13.5 to 27 µM) | 16 to 32 (≈ 27 to 54.1 µM) | 0.25 to 0.5 (≈ 0.422 to 0.845 µM) | > 64 | 4 to 8 (≈ 6.76 to 13.5 µM) | > 64 | 16 to 32 (≈ 27 to 54.1 µM)
CCN1CCN(C(=O)NC(C(=O)N[C@H]2Cc3cccc(C(=O)O)c3OB2O)c2cccc(NC(=O)c3cncnc3)c2)C(=O)C1=O (stereo partly drawn) [Example 96, (3R)-3-(2-(4-ethyl-2,3-dioxopiperazine-1-carboxamido)-2-(3-(pyrimidine-5-carboxamido)phenyl)acetamido)-2-hydroxy-3,4-dihydro-2H-benzo[e][1,2]oxaborinine-8-carboxylic acid] | 8 to 16 (≈ 12.7 to 25.4 µM) | > 128 | 8 to 16 (≈ 12.7 to 25.4 µM) | 32 to 64 (≈ 50.8 to 102 µM) | > 64 | 4 to 8 (≈ 6.36 to 12.7 µM) | > 64 | 16 to 32 (≈ 25.4 to 50.8 µM) | > 64 | > 64
CCN1CCN(C(=O)NC(C(=O)N[C@H]2Cc3cccc(C(=O)O)c3OB2O)c2ccc(C(=O)O)c(OC)c2)C(=O)C1=O (stereo partly drawn) [Example 48, (3R)-3-(2-(4-carboxy-3-methoxyphenyl)-2-(4-ethyl-2,3-dioxopiperazine-1-carboxamido)acetamido)-2-hydroxy-3,4-dihydro-2H-benzo[e][1,2]oxaborinine-8-carboxylic acid] | 8 to 16 (≈ 13.7 to 27.5 µM) | 32 to 64 (≈ 55 to 110 µM) | < 0.25 | 8 to 16 (≈ 13.7 to 27.5 µM) | 4 to 8 (≈ 6.87 to 13.7 µM) | 0.25 to 0.5 (≈ 0.429 to 0.859 µM) | 16 to 32 (≈ 27.5 to 55 µM) | 1 to 2 (≈ 1.72 to 3.43 µM) | 4 to 8 (≈ 6.87 to 13.7 µM) | 16 to 32 (≈ 27.5 to 55 µM)
CCN1CCN(C(=O)NC(C(=O)N[C@H]2Cc3cccc(C(=O)O)c3OB2O)c2ccc(O)cc2OC)C(=O)C1=O (stereo partly drawn) [Example 70, (3R)-3-(2-(4-ethyl-2,3-dioxopiperazine-1-carboxamido)-2-(4-hydroxy-2-methoxyphenyl)acetamido)-2-hydroxy-3,4-dihydro-2H-benzo[e][1,2]oxaborinine-8-carboxylic acid] | 2 to 4 (≈ 3.61 to 7.22 µM) | > 128 | 8 to 16 (≈ 14.4 to 28.9 µM) | 8 to 16 (≈ 14.4 to 28.9 µM) | 16 to 32 (≈ 28.9 to 57.7 µM) | 1 to 2 (≈ 1.8 to 3.61 µM) | > 64 | 16 to 32 (≈ 28.9 to 57.7 µM) | > 64 | > 64
CCN1CCN(C(=O)NC(C(=O)N[C@H]2Cc3cccc(C(=O)O)c3OB2O)c2ncc(C(=O)O)cc2F)C(=O)C1=O (stereo partly drawn) [Example 20, 6-(2-(((R)-8-carboxy-2-hydroxy-3,4-dihydro-2H-benzo[e][1,2]oxaborinin-3-yl)amino)-1-(4-ethyl-2,3-dioxopiperazine-1-carboxamido)-2-oxoethyl)-5-fluoronicotinic acid] | 8 to 16 (≈ 14 to 28 µM) | > 128 | 2 to 4 (≈ 3.5 to 7 µM) | 8 to 16 (≈ 14 to 28 µM) | 4 to 8 (≈ 7 to 14 µM) | 1 to 2 (≈ 1.75 to 3.5 µM) | 16 to 32 (≈ 28 to 56 µM) | 4 to 8 (≈ 7 to 14 µM) | 16 to 32 (≈ 28 to 56 µM) | > 64
CCN1CCN(C(=O)N[C@@H](C(=O)N[C@H]2Cc3cccc(C(=O)O)c3OB2O)c2cc(O)cc(O)c2)C(=O)C1=O (single isomer, unassigned) [Example 82] | 2 to 4 (≈ 3.7 to 7.4 µM) | 32 to 64 (≈ 59.2 to 118 µM) | 2 to 4 (≈ 3.7 to 7.4 µM) | 32 to 64 (≈ 59.2 to 118 µM) | 4 to 8 (≈ 7.4 to 14.8 µM) | < 0.125 | 4 to 8 (≈ 7.4 to 14.8 µM) | 0.25 to 0.5 (≈ 0.463 to 0.925 µM) | 4 to 8 (≈ 7.4 to 14.8 µM) | 16 to 32 (≈ 29.6 to 59.2 µM)
CCN1CCN(C(=O)NC(C(=O)N[C@H]2Cc3cccc(C(=O)O)c3OB2O)c2cccc([N+](=O)[O-])c2)C(=O)C1=O (stereo partly drawn) [Example 75, (3R)-3-(2-(4-ethyl-2,3-dioxopiperazine-1-carboxamido)-2-(3-nitrophenyl)acetamido)-2-hydroxy-3,4-dihydro-2H-benzo[e][1,2]oxaborinine-8-carboxylic acid] | 8 to 16 (≈ 14.5 to 28.9 µM) | > 128 | 8 to 16 (≈ 14.5 to 28.9 µM) | 32 to 64 (≈ 57.8 to 116 µM) | 4 to 8 (≈ 7.23 to 14.5 µM) | 0.25 to 0.5 (≈ 0.452 to 0.904 µM) | > 64 | 4 to 8 (≈ 7.23 to 14.5 µM) | > 64 | > 64
NCCN1CCN(C(=O)N[C@H](C(=O)N[C@H]2Cc3cccc(C(=O)O)c3OB2O)c2ccc(O)cc2Cl)C(=O)C1=O (single isomer, unassigned) [Example 85] | 32 to 64 (≈ 55.8 to 112 µM) | > 128 | 32 to 64 (≈ 55.8 to 112 µM) | 32 to 64 (≈ 55.8 to 112 µM) | > 64 | 4 to 8 (≈ 6.97 to 13.9 µM) | > 64 | > 64 | > 64 | > 64
CCN1CCN(C(=O)NC(C(=O)N[C@H]2Cc3cccc(C(=O)O)c3OB2O)c2cccc(S(N)(=O)=O)c2)C(=O)C1=O (stereo partly drawn) [Example 99, (3R)-3-(2-(4-ethyl-2,3-dioxopiperazine-1-carboxamido)-2-(3-sulfamoylphenyl)acetamido)-2-hydroxy-3,4-dihydro-2H-benzo[e][1,2]oxaborinine-8-carboxylic acid] | 2 to 4 (≈ 3.4 to 6.81 µM) | 32 to 64 (≈ 54.5 to 109 µM) | 2 to 4 (≈ 3.4 to 6.81 µM) | 8 to 16 (≈ 13.6 to 27.2 µM) | 16 to 32 (≈ 27.2 to 54.5 µM) | 0.25 to 0.5 (≈ 0.426 to 0.851 µM) | 16 to 32 (≈ 27.2 to 54.5 µM) | 1 to 2 (≈ 1.7 to 3.4 µM) | 16 to 32 (≈ 27.2 to 54.5 µM) | > 64
